{
  "source": "patent US9458123B2",
  "about": "“Methods, pharmaceutical compositions, therapeutic systems, and compounds for treating B cell malignancies” (University of Rochester, priority 2012, dated 2016)",
  "origin": "cited, not measured here",
  "target": "Ubc13 and Uev1A (Homo sapiens, UniProt P61088+Q13404)",
  "sequence (P61088 whole entry, species assumed)": "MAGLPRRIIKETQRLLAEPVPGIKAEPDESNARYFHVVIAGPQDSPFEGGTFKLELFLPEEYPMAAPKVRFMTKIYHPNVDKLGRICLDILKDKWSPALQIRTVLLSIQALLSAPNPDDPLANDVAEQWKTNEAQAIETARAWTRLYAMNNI",
  "sequence (Q13404 whole entry, species assumed)": "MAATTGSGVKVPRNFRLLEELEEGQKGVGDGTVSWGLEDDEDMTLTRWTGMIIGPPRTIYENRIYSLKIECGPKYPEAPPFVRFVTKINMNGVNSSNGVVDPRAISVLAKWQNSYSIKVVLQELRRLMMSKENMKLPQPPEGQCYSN",
  "conditions": "previous studies; cited from earlier work",
  "data": [
    {"molecule": "C[C@@H](N)[C@@H](O)C/C=C\\C/C=C\\C/C=C\\C/C=C\\C/C=C\\C/C=C\\CCCCCC[C@H](O)[C@@H](C)N", "note": "[leucettamol A]", "values": [
      {"measurement": "complex formation between Ubc13 and Uev1A in vitro", "value": "inhibited"}
    ]}
  ]
}
